In ChEMBL document CHEMBL3988442, “University of Dundee, Small-Polar-MMV Screening Library” (2021):

Experiments:
[1] = microbe, parasite or virus in culture; details: Mycobacterium tuberculosis, 96 h, read-out: pIC50 (converted)
[2] = microbe, parasite or virus in culture; details: Mycobacterium tuberculosis, 72 h, read-out: pIC50 (converted)

SMILES	IC50 [1] [µM]	IC50 [2] [µM]
CCC(O)CNc1ccc(-c2nc(CC(C)C)no2)cn1 (configuration not stated)	26.7	44.9
FC(F)(F)c1ccnc(N2CCC(c3nccn3CC3CC3)CC2)n1	16.3	44.6
COc1ccc(OC)c(CNc2nc(C)nn2C)c1	> 501	199
CNC(=O)c1cc(-c2ccccc2C)n[nH]1	180	> 501
CC1CCN(C(=O)C(C)Oc2ccc3c(c2)OCO3)CC1 (configuration not stated)	38.9	30.1
COc1cccc(OC2CNC2)c1	> 501	> 501
COC(=O)c1ccc(N2CCC(C(O)c3ccccc3)CC2)nn1 (configuration not stated)	20.5	24.3
Cn1cc(CN2CC[C@@H]3[C@@H](CCC(=O)N3CCC3=CCCCC3)C2)cn1	> 50.1	> 50.1
CCc1ccc(NC(=O)CN2CC[C@@H](N)C2)cc1	> 501	199
Cc1cc(C(=O)N2CCN(Cc3ccsc3)CC2)[nH]n1	156	90.5
Cc1cccc(CC(=O)N2CCn3cnnc3C2)c1	187	170
CCc1ccccc1CN1C(=O)CCC1=O	> 501	> 501
CN(C)S(=O)(=O)c1cccc(CN2CCCC2)c1	> 501	> 501
CC(C)CN1C(=O)C(N)c2ccccc21 (configuration not stated)	> 501	> 501
N[C@@H]1CC[C@H](C(=O)NCCOCc2ccccc2)C1	267	226
O=C(CCn1cccn1)N1CCCCCC1	> 501	110
Cn1cc(CNC(=O)c2cccc(I)c2)cn1	70.2	166
CCC1CN(C)c2ccccc2CN1CCC(=O)NC (configuration not stated)	> 501	> 501
CCCNC(=O)c1ccc(C(=O)OC)cc1	> 501	120
O=C(NCc1ccco1)Nc1nc2c(s1)COCC2	> 501	> 501
NCCCc1ccccn1	> 501	> 501
CCS(=O)(=O)N1CCCCC1c1nc(C(C)C)no1 (configuration not stated)	> 50.1	> 50.1
O=C(c1ncoc1C1CC1)N1CCCN(CCCc2ccccc2)CC1	> 50.1	> 50.1
Cc1ccc(S(=O)(=O)N2CCC[C@@H](N)C2)c(C)c1	276	219
Cc1cc(C)c(C)c(OCC(=O)N2CCN(C)CC2)c1	129	111
CC1=NOC(C(=O)NCCc2nc3c(s2)CCCC3)C1 (configuration not stated)	286	169

SMILES	IC50 [1] [µM]	IC50 [2] [µM]
COCCC(C)NC(=O)Nc1ccc(N2CCOC2=O)c(OC)c1 (configuration not stated)	> 50.1	> 50.1
CC(=O)NCc1ccc(C(=O)CSc2ccccn2)s1	> 501	> 501
O=C(CN1CCNCC1)NCCSc1ccc(Cl)cc1	110	177
O=C(c1cccc2cc[nH]c12)N1CCSCC1	> 501	> 501
CCCOCCNC(=O)c1cc(C(F)(F)F)n[nH]1	43.8	54.8
COc1ccc(-c2nc(CCN)co2)cc1	71.4	80.5
O=c1n(Cc2ccccc2)nnn1-c1cccs1	12.7	7.64
CCn1cncc1CNc1ccc(-c2nc(CC(C)C)no2)cn1	5.92	> 50.1
Fc1ccc(NCC2CCC3(CC2)OCCO3)nc1	205	264
Cc1nsc(C(=O)NCCc2ccccc2)n1	20.9	15.5
COc1ccc(CNC(C)c2ccc(Cl)c(Cl)c2)c(OC)c1OC (configuration not stated)	> 50.1	45.1
NC(c1cncc(Br)c1)C1CC1 (configuration not stated)	> 501	> 501
CC1CCCN(S(=O)(=O)N(C)Cc2ccco2)C1 (configuration not stated)	> 501	> 501
Cc1ccc(C(=O)N2CC(Oc3ccccc3C)C2)s1	10.7	8.82
c1ccc(CNc2cc(-n3cccn3)ncn2)cc1	> 501	11.2
N[C@H]1CCCN(S(=O)(=O)c2ccc(C(=O)NCC(F)F)cc2)C1	> 50.1	> 50.1
CCC[C@H]1CN(S(=O)(=O)c2ccnn2CCC)C[C@@H]1N	> 501	283
Cc1occc1C(=O)NCC(CO)Cc1cccs1 (configuration not stated)	> 501	> 501
Cc1cc(C)cc(OCC(=O)N2CCOCC2)c1	> 501	155
Cc1nnc(SCCCNC(=O)c2cc(Cl)c[nH]2)s1	119	121
OCCC1COc2ccc(F)cc2N1 (configuration not stated)	> 501	> 501
Cc1ccc2c(c1)OC(C)CN2C(=O)c1ccccn1 (configuration not stated)	> 501	> 501
CCCC(=O)N(CCCN1CCOCC1)c1nc2c(C)c(C)ccc2s1	> 50.1	> 50.1
O=S(=O)(CCN1CCC[C@H]1CO)c1ccccc1	> 501	198
COCc1cccc(C(=O)N2CCCC2)c1	> 50.1	16.3
CC(C)CCOc1ccc(C(C)NC(=O)Cn2cccnc2=O)cc1 (configuration not stated)	13.2	8.35

SMILES	IC50 [1] [µM]	IC50 [2] [µM]
COc1cccc(N2CCC(N)CC2)c1	213	426
Cn1c(C2CC2)nc2c1CCN(Cc1nc(-c3ccsc3)no1)C2	> 50.1	16.2
NCC1CN(c2nc3cc(Cl)ccc3o2)CCO1 (configuration not stated)	271	75.2
O=S(=O)(CCNc1ccccn1)NCC1CCC1	213	307
CN(C)CCN(C)c1ccc(-c2nc(COc3ccccc3)no2)cn1	14.4	48.4
CCCN(CCC)S(=O)(=O)N1CCC2(CC1)OCCO2	> 501	149
NCc1cccc(C(=O)NCc2ccco2)c1	> 501	> 501
NC(=O)CSc1nnc(-c2cc(Br)ccc2O)[nH]1	247	210
Nc1nnc(SCc2ccccc2F)s1	157	248
O=C(NC1CC1)c1nc2c(s1)CCCN2c1ccccc1	14.2	> 50.1
Cc1cc(N(C)Cc2ccsc2)n2nc(C)c(C)c2n1	12.6	12.6
CN(CCn1cccn1)c1cc(Br)ccn1	366	190
COCc1ccc(C(=O)NCc2cccc(F)c2)o1	35.8	59.4
COCCN(C)CC1CCCN1S(=O)(=O)c1cccc(F)c1F (configuration not stated)	> 50.1	15
COCCSCc1cccc(NC(=O)C(C)N)c1 (configuration not stated)	> 501	119
Cc1[nH]ncc1C(=O)NCCCSCC(C)C	> 501	102
Cc1[nH]c(=O)[nH]c(=O)c1CN1CCCC(CCc2ccc(F)cc2F)C1 (configuration not stated)	> 50.1	> 50.1
CCOc1ccc2c(c1)C=C(C(=O)NC)CO2	230	174
COc1cccc(N2CCC(N)C2)c1 (configuration not stated)	276	294
NC1(c2nc(C3CC3)cc(=O)[nH]2)CCCC1	> 501	304
N#Cc1c(F)cccc1NCCSCCCO	67.1	102
O=C(c1cc(C2CC2)on1)N1CCCN(C2CC2)CC1	> 501	> 501
CCOCCN1CCn2c(C)nnc2C1	> 50.1	> 50.1
Cc1n[nH]c(C)c1CCNC(=O)C1CCCN(Cc2ccco2)C1 (configuration not stated)	> 50.1	> 50.1
